Holding throughout (format): cell-based
Experiment [1] relates to ventricular cells cultured from chick embryos. Briefly: Hypoxia-induced injury / preconditioning of cultured ventricular cells (% cells killed, CK released). Particulars: for Ability to replace preconditioning hypoxia (protection against injury by ninety-minute hypoxia; % cells killed, CK released): agent given for 5 min in place of preconditioning hypoxia, before 90-min hypoxia, adenosine 10 μM, R-PIA 10 μM; for Ability to replace preconditioning hypoxia (protection against injury by ninety-minute hypoxia; % cells killed, CK released) / Effect on protection by preconditioning hypoxia (% cells killed, CK released): CGS21680 1 μM; for Effect on protection by preconditioning hypoxia (% cells killed, CK released): agent present during five-minute preconditioning hypoxia, CSC 1 μM, 8-SPT 100 μM, isoproterenol 0.3 μM, forskolin 1 μM, BayK 8644 0.1 μM; for EC (maximal effect): Gallus gallus, agonist replacing preconditioning hypoxia, read-out: Concentration giving maximal preconditioning effect. As to the method: Ventricular cells were cultured from chick embryos 14 days in ovo, according to a previously described procedure (20, 27). Cells were plated at a density of 400,000 cells per ml and cultivated in a humidified 5% CO2 -95% air mixture at 37° C. […] For preconditioning studies, the medium was changed to a HEPES-buffered medium containing (mM) 139 NaCl, 4.7 KCl, 0.5 MgCl2, 0.9 CaCl2, 5 HEPES (N-2-hydroxyethylpiperazine-N'-2-ethanesulfonic acid) and 2% fetal bovine serum, pH=7.4, 37° C. before exposing cells to the various conditions at 37° C. Control cells were maintained in the HEPES-buffered media under room air. Hypoxia was produced by placing the cells in a hypoxic incubator (NuAire) where O2 was replaced by N2. The % O2 was monitored by both an oxygen Fyrite Gas Analyzer (Bacharach) and an oxygen analyzer (Model OX630, Engineered Systems & Designs). Preconditioning was induced by exposing the cells to five minutes of hypoxia, termed preconditioning hypoxia, prior to a second ninety-minute hypoxia. Cells not subjected to preconditioning were exposed to ninety minutes of hypoxia only (nonpreconditioned cells). The extracellular pH was similarly maintained at 7.4 by HEPES in both preconditioned and nonpreconditioned cells. Determination of basal level of cell injury was made after parallel incubation of control cells under normal % O2. For preconditioned and nonpreconditioned cells, determination of cell injury was made at the end of the ninety-minute hypoxic period.
The extent of hypoxia-induced injury to the ventricular cell was quantitatively determined by the percentages of cells killed and by the amount of creatine kinase (CK) released into the media. To quantitate the % cells killed, cells were exposed to a trypsin-EDTA Hanks' balanced salt solution for 10 minutes for detachment after the various treatment, followed by centrifugation (300 × g for 10 minutes) and resuspension in culture media for counting in a hemocytometer. Only live cells sedimented and the cells counted represented those that survived (29). None of the sedimented cells subsequently counted included trypan blue. […] There was no protein or CK in the culture media following a second 300 × g centrifugation of resuspended cells previously treated with trypsin-EDTA. […] In contrast, the trypsin-EDTA media from cells exposed to 90 minutes of hypoxia contained substantial amount of proteins (0.15±0.03 mg, n=9) and CK activity (16±3 unit/mg protein, n=8). […] Because trypsin may cause further proteolysis of proteins and CK, the amount of protein and CK retained by the damaged cells in the trypsin-EDTA media may not accurately reflect those associated with the damaged cells. In support of the notion that exposure to 90 minutes of hypoxia caused significant cell injury and loss of membrane integrity, there was also marked release of LDH (hypoxia-exposed cells, 35.5±2.7, unit/mg, n=8, ±S.E. vs. control cells, 6.1±0.4 unit/mg, n=8) and proteins (hypoxia-exposed cells, 0.15±0.03 mg, n=8 vs. control cells, 0.034±0.01 mg, n=8) from the cells incubated under prolonged hypoxia. Thus, the cell viability assay separated out the hypoxia-damaged from the control normoxia-exposed cells. […] The amount of CK was measured as enzyme activity (unit/mg), and increases in CK activity above the control level were determined. The percentage of cells killed was calculated as the number of cells obtained from the control group (representing cells not subjected to any hypoxia or drug treatment) minus the number of cells from the treatment group divided by number of cells in control group multiplied by 100%.
To investigate the role of adenosine in mediating the preconditioning effect, the ventricular cells, instead of being exposed to the brief hypoxia, were incubated with adenosine (10 μM) for 5 minutes prior to the ninety minute hypoxia. In adenosine-treated cells, media were replaced with adenosine-free media for ten minutes prior to a ninety-minute hypoxic exposure. […]

For experiment [2] the test system is unchanged. Briefly: 45Ca uptake in cultured ventricular cells. Particulars: for Calcium influx into the cultured cells: isoproterenol 0.3 μM, forskolin 1 μM, BayK 8644 0.1 μM, data not shown. As to the method:
(§1) Determination of ^45 Ca uptake was made according to a modification of previously described method (20). Cultures were incubated with L-(3, 4, 5-^3 H, N)-leucine (152.2 Ci/mmol) for a 24 hour prior to ^45 Ca uptake. [^3 H] leucine incorporated into the cellular protein allowed normalization of ^45 Ca content to mg cell protein. After incubation with ^45 Ca-containing medium, cells were then washed free of ^45 Ca and solubilized for 2 hours with 1% sodium dodecyl sulfate and 10 mM sodium borate and the levels of ^3 H and ^45 Ca were determined. For all data comparing the effect of different agents on ^45 Ca uptake, one-way ANOVA analysis followed by group comparison with t-test was carried out at each time point of the ^45 Ca uptake. Cyclic AMP level was determined according to a previously described radioimmunoassay (27).

Experiment [3] has the same test system. Briefly: Cyclic AMP level in cultured ventricular cells (radioimmunoassay). The settings on record: Gallus gallus; isoproterenol 0.3 μM, forskolin 1 μM; n=6, ±S.E.; read-out: % increase in cAMP level. As to the method: as §1
Background: cAMP levels reflect the balance of adenylyl cyclase and phosphodiesterase activity.

For `Nc1ncnc2c1ncn2[C@@H]1O[C@H](CO)[C@@H](O)[C@H]1O` [Adenosine, adenosine], in experiment [1], the “Ability to replace preconditioning hypoxia (protection against injury by ninety-minute hypoxia; % cells killed, CK released)” value is on record as “significant attenuation of the injury”.
`COC(=O)C1=C(C)NC(C)=C([N+](=O)[O-])C1c1ccccc1C(F)(F)F` (stereo not shown) [BayK 8644]: in experiment [1], the “Ability to replace preconditioning hypoxia (protection against injury by ninety-minute hypoxia; % cells killed, CK released)” value was “Neither isoproterenol, forskolin nor BayK8644 had any effect on the level of protection”; the “Effect on protection by preconditioning hypoxia (% cells killed, CK released)” value is “caused an increase in % cells killed and amount of CK released”. In addition, in experiment [2], the “Calcium influx into the cultured cells” value was “induced increased calcium influx”.
Turning to `CNC(=O)[C@H]1O[C@@H](n2cnc3c(NCc4cccc(I)c4)nc(Cl)nc32)[C@H](O)[C@@H]1O` [C1-IB-MECA, 2-chloro-N^6-(3-iodobenzyl)adenosine-5'-N-methyluronamide], in experiment [1], the EC (maximal effect) turned out to be 0.1 µM; the “Ability to replace preconditioning hypoxia (protection against injury by ninety-minute hypoxia; % cells killed, CK released)” value is “can replace preconditioning hypoxia and simulate preconditioning”.
On to `OC[C@H]1O[C@@H](n2cnc3c(NC4CCCC4)nc(Cl)nc32)[C@H](O)[C@@H]1O` [CCPA], for which, in experiment [1], the EC (maximal effect) stood at 0.1 µM; the “Ability to replace preconditioning hypoxia (protection against injury by ninety-minute hypoxia; % cells killed, CK released)” value is “can replace preconditioning hypoxia and simulate preconditioning”.
Regarding `CCNC(=O)[C@H]1O[C@@H](n2cnc3c(N)nc(NCCc4ccc(CCC(=O)O)cc4)nc32)[C@H](O)[C@@H]1O` [CGS21680, 2-[4-(2-carboxyethyl)phenylethylamino]-5'-N-ethylcarboxiamidoadenosine], in experiment [1], the “Ability to replace preconditioning hypoxia (protection against injury by ninety-minute hypoxia; % cells killed, CK released)” value was “could not” and the “Effect on protection by preconditioning hypoxia (% cells killed, CK released)” value is given as “attenuated the protection”. Further, in experiment [2] (after 90-second exposure to 45Ca-containing media, CGS21680 1 μM, control 4.2±0.1, ±S.D.), the 45Ca uptake came to 5.8 ± 0.2 nmol/mg. In experiment [2] (after 90-second exposure to 45Ca, CGS21680 1 μM plus nifedipine 1 μM, control 4.2±0.1, ±S.D.), the “45Ca uptake, CGS21680 plus nifedipine” value was determined as 4.4 ± 0.1 nmol/mg.
With `C[C@H](Cc1ccccc1)Nc1ncnc2c1ncn2[C@@H]1O[C@H](CO)[C@@H](O)[C@H]1O` [R-PIA, N^6 -R-phenyl-2-propyl adenosine], in experiment [1], the “Ability to replace preconditioning hypoxia (protection against injury by ninety-minute hypoxia; % cells killed, CK released)” value is “could substitute for preconditioning hypoxia and induce preconditioning”.
As to `Cn1c(=O)c2c(nc(/C=C/c3cccc(Cl)c3)n2C)n(C)c1=O` [compound 28, 8-(3-chlorostyryl)caffeine], the “Effect on R-PIA-induced preconditioning (% cells killed, CK released)” value in experiment [1] (CSC present during 5-min treatment with 10 μM R-PIA, P<0.01) is “enhanced the preconditioning effect”. In experiment [1], the “Ability to replace preconditioning hypoxia (protection against injury by ninety-minute hypoxia; % cells killed, CK released)” value is “had no effect on the extent of injury” and the “Effect on protection by preconditioning hypoxia (% cells killed, CK released)” value is given as “increased protection”.
For `C=C[C@@]1(C)CC(=O)[C@]2(O)[C@@]3(C)[C@@H](O)CCC(C)(C)[C@@H]3[C@H](O)[C@H](OC(C)=O)[C@@]2(C)O1` [forskolin], the activation at 1 µM in experiment [3] stood at 54.8 ± 9.7%. In experiment [1], the “Ability to replace preconditioning hypoxia (protection against injury by ninety-minute hypoxia; % cells killed, CK released)” value is “Neither isoproterenol, forskolin nor BayK8644 had any effect on the level of protection”; the “Effect on protection by preconditioning hypoxia (% cells killed, CK released)” value was “caused an increase in % cells killed and amount of CK released”. Moreover, the “Calcium influx into the cultured cells” value in experiment [2] is listed as “induced increased calcium influx”.
Take `CC(C)NCC(O)c1ccc(O)c(O)c1` (stereo not shown) [isoproterenol]: the activation at 0.3 µM in experiment [3] was 228 ± 31%. In addition, in experiment [1], the “Ability to replace preconditioning hypoxia (protection against injury by ninety-minute hypoxia; % cells killed, CK released)” value is listed as “Neither isoproterenol, forskolin nor BayK8644 had any effect on the level of protection”; the “Effect on protection by preconditioning hypoxia (% cells killed, CK released)” value was “caused an increase in % cells killed and amount of CK released”. The “Calcium influx into the cultured cells” value in experiment [2] is on record as “induced increased calcium influx”.
In the case of `COC(=O)C1=C(C)NC(C)=C(C(=O)OC)C1c1ccccc1[N+](=O)[O-]` [nifedipine], the “Ability to replace preconditioning hypoxia (protection against injury by ninety-minute hypoxia; % cells killed, CK released)” value in experiment [1] is “did not simulate preconditioning”. Moreover, the “Effect on attenuation of preconditioning by isoproterenol, forskolin and BayK 8644” value in experiment [1] (nifedipine 1 μM during preconditioning hypoxia) is listed as “abolished”. The “Effect on CGS21680-induced attenuation of preconditioning” value in experiment [1] (nifedipine 1 μM with CGS21680 during preconditioning hypoxia) is reported as “abolished the CGS21680-induced attenuation of cardioprotection”. The “Effect on increase in calcium uptake by isoproterenol, forskolin and BayK 8644” value in experiment [2] (nifedipine) is listed as “blocked the increase in calcium uptake”.

These data come from patent US5859019A, “Methods for protecting against cardiac ischemia by administering adenosine A2a receptor antagonists” (priority 1997, dated 1999).
